Data reported in patent publication US8163909B2, “Substituted hydroxyethyl amine compounds as beta-secretase modulators and methods of use” (Amgen Inc., priority 2007, dated 2012).
Like-named read-outs stand apart in the source and are kept apart here.

Experiments:
[1] = molecular target: Beta Secretase enzyme (BACE) (Homo sapiens, UniProt P56817); assay: In vitro enzymatic BACE FRET (fluorescence resonance energy transfer) assay; assay type: biochemical; settings: read-out: BACE1 FRET assay;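 note: fluorescence read after 1 h with 50 nM quenched peptide substrate spanning the BACE cleavage site, in pH 4.2 acetate buffer containing 10% DMSO and nonionic detergent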
[2] = system: Aβ40 in conditioned medium of cells stably expressing Amyloid Precursor Protein (APP); assay: In vitro BACE cell-based assay (Aβ40 in conditioned medium, sandwich ELISA); settings: Homo sapiens, read-out: HEK cell assay;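 note: compounds added as a dilution series, secreted peptide quantified by europium time-resolved fluorescence readout, potency fitted from percent of control versus compound concentration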
[3] = molecular target: CYP3A4 (CYP3A) (Homo sapiens, UniProt P08684); assay: in vitro; settings: microsomes, pH 7.4;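 note: inhibition of CYP3A-mediated 1-hydroxymidazolam formation after 10 min incubation with NADPH, quantified by HPLC MS relative to metabolite produced without test compound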
[4] = Microsomal stability assay, rat liver microsomes;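 note: rat liver microsomes (0.25 mg/mL) with about 1 µM compound plus 1 mM NADPH, pH 7.4, 37 °C for 30 min, parent left measured by LC-MS/MS against 0 min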
[5] = Microsomal stability assay, human liver microsomes;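 note: pooled human liver microsomes at 0.25 mg/mL with 1 µM compound and NADPH at 37 °C, pH 7.4, for 30 min, unchanged parent quantified by LC-MS/MS against the 0 min sample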
[6] = molecular target: CYP2D6 (Homo sapiens, UniProt P10635); assay: CYP2D6 inhibition assay (bufuralol, pooled human liver microsomes)
[7] = HEK293, HEK cell-based assay IC50
[8] = 2D6 IC50 (uM), CYP2D6 inhibition
[9] = BACE enzyme assay, IC50's in uM
[10] = HEK293, HEK cell-based assay, IC50's in uM
[11] = 2D6 IC50 (uM), CYP enzyme inhibition

Sequence of CYP2D6 (P10635 whole entry): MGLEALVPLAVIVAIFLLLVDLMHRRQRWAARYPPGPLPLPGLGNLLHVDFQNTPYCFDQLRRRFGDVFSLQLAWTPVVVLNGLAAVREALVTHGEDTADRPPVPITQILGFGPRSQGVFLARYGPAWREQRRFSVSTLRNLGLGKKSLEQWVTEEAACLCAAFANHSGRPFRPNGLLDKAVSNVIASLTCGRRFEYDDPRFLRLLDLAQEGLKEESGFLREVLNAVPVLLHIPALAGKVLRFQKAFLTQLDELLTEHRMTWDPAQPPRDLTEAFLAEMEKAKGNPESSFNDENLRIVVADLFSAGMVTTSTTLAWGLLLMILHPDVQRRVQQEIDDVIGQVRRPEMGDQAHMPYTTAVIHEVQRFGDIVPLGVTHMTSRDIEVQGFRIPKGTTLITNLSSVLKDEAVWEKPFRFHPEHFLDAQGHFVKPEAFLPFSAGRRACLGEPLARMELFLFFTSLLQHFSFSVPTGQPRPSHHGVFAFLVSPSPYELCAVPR
Sequence of CYP3A4 (CYP3A) (P08684 2-503): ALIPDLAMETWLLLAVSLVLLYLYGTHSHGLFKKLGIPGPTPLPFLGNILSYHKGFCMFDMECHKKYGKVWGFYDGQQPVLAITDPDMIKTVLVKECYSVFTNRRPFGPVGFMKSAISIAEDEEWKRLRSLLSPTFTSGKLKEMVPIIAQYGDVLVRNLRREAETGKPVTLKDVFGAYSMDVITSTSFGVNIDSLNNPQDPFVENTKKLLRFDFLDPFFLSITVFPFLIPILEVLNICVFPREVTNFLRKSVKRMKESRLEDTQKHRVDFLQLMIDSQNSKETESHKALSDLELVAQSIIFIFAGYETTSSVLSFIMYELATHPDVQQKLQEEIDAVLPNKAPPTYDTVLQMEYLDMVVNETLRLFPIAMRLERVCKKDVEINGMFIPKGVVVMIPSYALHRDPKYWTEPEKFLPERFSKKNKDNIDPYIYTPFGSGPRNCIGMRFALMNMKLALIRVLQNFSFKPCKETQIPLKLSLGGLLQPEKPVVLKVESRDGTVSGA
Sequence of Beta Secretase enzyme (BACE) (P56817 46-501): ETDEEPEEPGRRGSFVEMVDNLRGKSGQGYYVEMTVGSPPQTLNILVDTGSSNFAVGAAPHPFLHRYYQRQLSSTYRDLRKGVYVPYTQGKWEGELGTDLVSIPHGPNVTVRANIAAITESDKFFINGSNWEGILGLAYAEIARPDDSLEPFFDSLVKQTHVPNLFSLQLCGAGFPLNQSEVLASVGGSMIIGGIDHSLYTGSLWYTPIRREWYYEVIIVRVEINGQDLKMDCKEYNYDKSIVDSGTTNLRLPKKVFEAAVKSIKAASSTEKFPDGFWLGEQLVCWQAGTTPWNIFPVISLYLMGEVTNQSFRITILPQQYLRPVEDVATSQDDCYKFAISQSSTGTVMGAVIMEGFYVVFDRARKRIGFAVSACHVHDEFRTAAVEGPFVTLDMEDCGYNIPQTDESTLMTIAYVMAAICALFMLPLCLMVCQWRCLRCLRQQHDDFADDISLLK

Structure (SMILES)	IC50 ([1]; BACE enzyme assay IC50) [µM]	IC50 [2, 7] [µM]	IC50 [3] [nM]	RLM ([4]; rat liver microsomes) [µL/min/mg]	HLM ([5]; human liver microsomes) [µL/min/mg]	IC50 [6, 8] [µM]	IC50 [1, 9] [µM]	IC50 [2, 10] [µM]	RLM ([4]; rat liver microsomal data) [µL/min/mg]	HLM ([5]; human liver microsomal data) [µL/min/mg]	IC50 [6, 11] [µM]	IC50 [6] [µM]
CO[C@H](C)C(=O)N[C@@H](Cc1cc(F)cc(-c2nccs2)c1)[C@H](O)CN[C@H]1CC2(CCC2)Oc2c1cc(CC(C)C)nc2Cl [compound 752]	0.009	0.067	100	137	166	1.3	–	–	–	–	–	–
COC(OC)C(=O)N[C@@H](Cc1ccc2c(c1)OCO2)[C@H](O)CN[C@H]1CC2(CCC2)Oc2ncc(CC(C)C)cc21 [compound 754, N-((1S,2R)-1-(1,3-benzodioxol-5-ylmethyl)-2-hydroxy-3-(((4′S)-6′-(2-methylpropyl)-3′,4′-dihydrospiro[cyclobutane-1,2′-pyrano[2,3-b]pyridin]-4′-yl)amino)propyl)-2,2-dimethoxyacetamide]	0.037	0.054	100	86	29	3.5	–	–	–	–	–	–
Cc1nc(CN2CCO[C@@H](C(=O)N[C@@H](Cc3ccc(F)cc3)[C@H](O)CN[C@H]3CC4(CCC4)Oc4ncc(CC(C)(C)C)cc43)C2)cs1 [compound 755]	–	–	300	–	–	–	0.012	0.007	191	522	3.3	–
COCC(=O)N[C@@H](Cc1cccc(-c2ncc(C)s2)c1)[C@H](O)CN[C@H]1CC2(CCC2)Oc2ncc(CC(C)(C)C)cc21 [compound 759, N-((1S,2R)-3-(((4′S)-6′-(2,2-dimethylpropyl)-3′,4′-dihydrospiro[cyclobutane-1,2′-pyrano[2,3-b]pyridin]-4′-yl)amino)-2-hydroxy-1-(3-(5-methyl-1,3-thiazol-2-yl)benzyl)propyl)-2-methoxyacetamide]	–	–	300	–	–	–	0.021	0.071	399	436	1.5	–
CO[C@H](C)C(=O)N[C@@H](Cc1ccc(F)c(-c2nccs2)c1)[C@H](O)CN[C@H]1CC2(CCC2)Oc2ncc(CC(C)(C)F)cc21 [compound 760]	–	–	300	–	–	–	0.031	0.1	31	26	0.8	–
Cc1nc(CN2CCO[C@H](C(=O)N[C@@H](Cc3ccc(F)cc3)[C@H](O)CN[C@H]3CC4(CCC4)Oc4ncc(CC(C)(C)C)cc43)C2)cs1 [compound 762]	–	–	300	–	–	–	0.037	0.037	522	297	2.6	–
COCC(=O)N[C@@H](Cc1cccc(F)c1)[C@H](O)CN[C@H]1CC2(CCC2)Oc2nc3c(cc21)[C@H](C(C)C)CO3 [compound 763]	–	–	2000	–	–	–	2.5	1.3	399	399	2	–
CO[C@H](C)C(=O)N[C@@H](Cc1cc(F)cc(-c2nccs2)c1)[C@H](O)CNC1CC2(CCC2)Oc2ncc(CC(C)(F)F)cc21 (stereo partly drawn) [compound 765, (2R)-N-((1S,2R)-3-((6′-(2,2-difluoropropyl)-3′,4′-dihydrospiro[cyclobutane-1,2′-pyrano[2,3-b]pyridin]-4′-yl)amino)-1-(3-fluoro-5-(1,3-thiazol-2-yl)benzyl)-2-hydroxypropyl)-2-methoxypropanamide]	–	–	200	–	–	–	0.021	0.054	39	35	0.7	–
C#Cc1cnc2c(c1)[C@@H](NC[C@@H](O)[C@H](Cc1cc(F)cc(-c3nccs3)c1)NC(=O)COC)CC1(CCC1)O2 [compound 766]	–	–	200	–	–	–	0.055	0.272	64	70	1.4	–
COCC(=O)N[C@@H](Cc1ccc2c(c1)OCO2)[C@H](O)CN[C@H]1CC2(CCC2)Oc2c(-c3ccccn3)cc(CC(C)C)cc21 [compound 767]	–	–	100	–	–	–	0.198	0.251	150	157	3.6	–
CO[C@H](C)C(=O)N[C@@H](Cc1ccc(F)c(-c2nccs2)c1)[C@H](O)CN[C@H]1CC2(CCC2)Oc2ncc(CC(C)C)cc21 [compound 768, (2R)-N-((1S,2R)-1-(4-fluoro-3-(1,3-thiazol-2-yl)benzyl)-2-hydroxy-3-(((4′S)-6′-(2-methylpropyl)-3′,4′-dihydrospiro[cyclobutane-1,2′-pyrano[2,3-b]pyridin]-4′-yl)amino)propyl)-2-methoxypropanamide]	–	–	100	–	–	–	0.022	0.105	70	39	0.4	–
CC(C)(C)Cc1cnc2c(c1)[C@@H](NC[C@@H](O)[C@H](Cc1ccc(F)cc1)NC(=O)[C@@H]1CN(Cc3nccs3)CCO1)CC1(CCC1)O2 [compound 769]	–	–	400	–	–	–	0.01	0.013	333	706	5.2	–
CO[C@H](C)C(=O)N[C@@H](Cc1cc(F)cc(-c2nccs2)c1)[C@H](O)CN[C@H]1CC2(CCC2)Oc2ccc(CC(C)C)cc21 [compound 770]	–	–	300	–	–	–	0.01	0.052	201	145	0.5	–
COCC(=O)N[C@@H](Cc1cc(F)cc(-c2nccs2)c1)[C@H](O)CN[C@H]1CC2(CCC2)Oc2ccc(CC(C)C)cc21 [compound 771, N-((1S,2R)-1-(3-fluoro-5-(1,3-thiazol-2-yl)benzyl)-2-hydroxy-3-(((4S)-6-(2-methylpropyl)-3,4-dihydrospiro[chromene-2,1′-cyclobutan]-4-yl)amino)propyl)-2-methoxyacetamide]	–	–	700	–	–	–	0.005	0.04	201	150	0.5	–
CC(C)(C)Cc1cnc2c(c1)[C@@H](NC[C@@H](O)[C@H](Cc1ccc(F)cc1)NC(=O)[C@H]1CN(Cc3cscn3)CCO1)CC1(CCC1)O2 [compound 774]	–	–	200	–	–	–	0.017	0.006	57	111	5.3	–
CC(C)(C)Cc1cnc2c(c1)[C@@H](NC[C@@H](O)[C@H](Cc1ccc3c(c1)OCO3)NC(=O)CC1CCS(=O)(=O)C1)CC1(CCC1)O2 (stereo partly drawn) [compound 778]	–	–	100	–	–	–	0.048	0.05	141	62	8.5	–
CC(C)(C)Cc1cnc2c(c1)[C@@H](NC[C@@H](O)[C@H](Cc1ccc3c(c1)OCO3)NC(=O)C1CCS(=O)(=O)C1)CC1(CCC1)O2 (stereo partly drawn) [compound 779]	–	–	100	–	–	–	0.057	0.075	66	36	3.9	–
C#Cc1cc(C[C@H](NC(=O)COC)[C@H](O)CN[C@H]2CC3(CCC3)Oc3ncc(CC(C)C)cc32)ccc1F [compound 780, N-((1S,2R)-1-(3-ethynyl-4-fluorobenzyl)-2-hydroxy-3-(((4′S)-6′-(2-methylpropyl)-3′,4′-dihydrospiro[cyclobutane-1,2′-pyrano[2,3-b]pyridin]-4′-yl)amino)propyl)-2-methoxyacetamide]	–	–	100	–	–	–	0.01	0.032	74	61	–	1.4
CO[C@H](C)C(=O)N[C@@H](Cc1cncs1)[C@H](O)CN[C@H]1CC2(CCC2)Oc2c1cc(CC(C)(C)C)nc2-c1ccccn1 [compound 781]	–	–	400	–	–	–	0.071	0.206	82	104	≥ 27	–
COCC(=O)N[C@@H](Cc1cc(F)cc(F)c1)[C@H](O)CN[C@H]1CC2(CCC2)Oc2c(-c3ccncc3)cc(C3CC3)cc21 [compound 783]	–	–	300	–	–	–	0.031	0.029	107	73	0.3	–
C#Cc1cnc2c(c1)[C@@H](NC[C@@H](O)[C@H](Cc1cc(F)cc(-c3nccs3)c1)NC(=O)[C@@H](C)OC)CC1(CCC1)O2 [compound 784]	–	–	≤ 30	–	–	–	0.158	0.864	64	51	1	–
CC(C)(C)Cc1cnc2c(c1)[C@@H](NC[C@@H](O)[C@H](Cc1ccc(F)cc1)NC(=O)[C@@H]1CN(Cc3cscn3)CCO1)CC1(CCC1)O2 [compound 786]	–	–	300	–	–	–	0.047	0.029	129	169	7.9	–
COCC(=O)N[C@@H](Cc1ccc(-c2nccs2)c(F)c1)[C@H](O)CN[C@H]1CC2(CCC2)Oc2ncc(CC(C)C)cc21 [compound 787]	–	–	200	–	–	–	0.11	0.451	79	58	0.8	–
COCCC(=O)N[C@@H](Cc1cccc(-c2nccs2)c1)[C@H](O)CN[C@H]1CC2(CCC2)Oc2ncc(CC(C)(C)C)cc21 [compound 791]	–	–	100	–	–	–	0.009	0.012	33	43	0.6	–
